Test results from patent US7615353B1, “Tivozanib response prediction” (AVEO Pharmaceuticals, Inc., priority 2009, dated 2009).

Experiments:
preclinical models = details: Nakamura et al., 2006; cited from earlier work
VEGF receptor 3 = VEGF receptor 3 (Homo sapiens, UniProt P35916); details: Nakamura et al., 2006; cited from earlier work
[1] = tested on: murine breast tumors (BH archive); experiment: tumor response to tivozanib, subcutaneously transplanted murine Her2-driven breast tumors (BH archive) in NCr nude mice; type: in vivo, mouse
Description: A population of more than 100 murine breast tumors (BH archive) was used to identify tumors that are sensitive to tivozanib (responders) and tumors that are resistant to tivozanib (non-responders). The BH archive was established by in vivo propagation and cryopreservation of primary tumor material from more than 100 spontaneous murine breast tumors derived from engineered chimeric mice that develop Her2-dependent, inducible spontaneous breast tumors. The mice were produced essentially as follows.
Tumor cells were isolated by physical disruption of the tumors using cell strainers. Typically 1×10^5 cells were mixed with matrigel (50:50 volume) and injected subcutaneously into female NCr nu/nu mice on upper dorsal region between the shoulder blades. When these tumors grew to approximately 500 mm^3, which typically required 2 to 4 weeks, they were collected for further propagation, drug response testing, and analysis. Analysis included microarray profiling, general histopathology, and IHC (CD31 for tumor vasculature, Ki67 for tumor cell proliferation).
Evaluation of tumor response to tivozanib was performed essentially as follows. Subcutaneously transplanted tumors were established by injecting physically disrupted tumor cells (mixed with Matrigel) into 7 week-old female NCr nude mice. When the tumors reached approximately 200-400 mm^3, 30 tumor-bearing mice were randomized into three groups. Group 1 received vehicle. Group 2 received tivozanib at 5 mg/kg daily by oral gavage. Group 3 received tivozanib at 20 mg/kg daily by oral gavage. Tumors were measured twice per week by a caliper, and tumor volume was calculated. At the end of the treatment, tumors were collected for histopathological analysis and IHC analysis.
Based on tumor growth inhibition and typical histopathological and IHC (CD31) characteristics for angiogenesis inhibition, responders and non-responders were identified. […]

[2] = 272-patient Phase 2 clinical trial; Bhargava et al., 2009; cited from earlier work

VEGF receptor 3, sequence (P35916 25-1363): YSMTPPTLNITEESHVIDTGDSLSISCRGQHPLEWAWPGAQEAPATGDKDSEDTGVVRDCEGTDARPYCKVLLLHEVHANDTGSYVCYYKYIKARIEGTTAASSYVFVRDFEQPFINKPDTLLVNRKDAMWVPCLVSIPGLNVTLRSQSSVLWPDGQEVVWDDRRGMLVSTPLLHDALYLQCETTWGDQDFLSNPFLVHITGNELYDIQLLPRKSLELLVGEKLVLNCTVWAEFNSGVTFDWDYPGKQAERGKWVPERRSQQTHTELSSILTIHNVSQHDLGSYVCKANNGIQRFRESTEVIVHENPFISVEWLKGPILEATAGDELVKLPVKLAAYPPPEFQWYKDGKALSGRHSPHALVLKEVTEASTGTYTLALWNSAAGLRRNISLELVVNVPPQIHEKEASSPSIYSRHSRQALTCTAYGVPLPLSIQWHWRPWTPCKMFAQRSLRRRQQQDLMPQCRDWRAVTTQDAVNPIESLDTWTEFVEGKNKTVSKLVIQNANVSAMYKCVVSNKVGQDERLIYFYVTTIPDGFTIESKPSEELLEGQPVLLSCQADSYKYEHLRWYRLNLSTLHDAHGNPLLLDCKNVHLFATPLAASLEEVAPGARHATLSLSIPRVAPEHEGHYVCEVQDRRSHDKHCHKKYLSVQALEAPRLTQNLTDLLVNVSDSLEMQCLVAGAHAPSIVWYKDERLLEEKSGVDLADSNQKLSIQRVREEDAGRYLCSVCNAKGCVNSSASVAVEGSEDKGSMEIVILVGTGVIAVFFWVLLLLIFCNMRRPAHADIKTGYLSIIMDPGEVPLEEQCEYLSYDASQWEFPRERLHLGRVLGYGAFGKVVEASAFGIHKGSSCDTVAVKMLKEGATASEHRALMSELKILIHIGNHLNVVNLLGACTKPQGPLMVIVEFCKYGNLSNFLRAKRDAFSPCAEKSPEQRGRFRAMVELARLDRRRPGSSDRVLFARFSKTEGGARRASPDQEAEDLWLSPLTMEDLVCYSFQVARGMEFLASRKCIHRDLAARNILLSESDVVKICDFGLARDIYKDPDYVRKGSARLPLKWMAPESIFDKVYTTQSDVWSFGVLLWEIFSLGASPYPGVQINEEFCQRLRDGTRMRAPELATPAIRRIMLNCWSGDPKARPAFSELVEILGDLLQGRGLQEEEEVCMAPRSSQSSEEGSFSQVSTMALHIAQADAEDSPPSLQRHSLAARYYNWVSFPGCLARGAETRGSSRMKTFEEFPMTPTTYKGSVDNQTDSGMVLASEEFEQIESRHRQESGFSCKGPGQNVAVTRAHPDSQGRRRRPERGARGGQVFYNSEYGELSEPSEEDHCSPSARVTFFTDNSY

## COc1cc2nccc(Oc3ccc(NC(=O)Nc4cc(C)on4)c(Cl)c3)c2cc1OC [Tivozanib, N-{2-chloro-4-[(6,7-dimethoxy-4-quinolyl)oxy]-phenyl}-N′-(5-methyl-3-isoxazolyl)urea]
Preclinical models
  antitumor activity: exhibits antitumor activity
VEGF receptor 3
  inhibitory activity: picomolar
[1]; 5 or 20 mg/kg daily by oral gavage, tumor growth inhibition, histopathology, IHC (CD31)
  variation in response among tumors: significant tumor-to-tumor variation in response
[1]; responder tumors, 5 mg/kg daily by oral gavage
  tumor progression by caliper measurement: no tumor progression
[1]; responder tumors, 5 mg/kg daily by oral gavage, except the peripheries
  tumor killing (by histology): close to complete tumor killing
[2]
  interim results: positive interim results
